Assay results from PMC3410885, “6-Arylpyrido[2,3-d]pyrimidines as Novel ATP-Competitive Inhibitors of Bacterial D-Alanine:D-Alanine Ligase” (PLoS ONE, 2012).
≈ marks a conversion by molar mass, not a printed value.

Columns and labels:
[1] = test system: ES100 (tolC deficient derivative of AB734); test: MIC by broth microdilution, ES100; type: cell-based, E. coli
Description: (§1) Selected DdlB inhibitors were tested for their antibacterial activity against two E. coli strains E. coli 1411 and E. coli AB734 (Table 2). […] Additionally, growth inhibition of efflux pump-deficient strains SM1411 (acrAB deficient derivative of 1411) and ES100 (tolC deficient derivative of AB734) was measured, and MICs were repeated for each strain in the presence of polymyxin B nonapeptide (PMBN) to assess the impact of outer-membrane permeability on antimicrobial activity.
(§2) Minimum inhibitory concentrations (MICs) were determined by broth microdilution against E. coli 1411, SM1411 (acrAB deficient derivative of 1411), AB734 and ES100 (tolC deficient derivative of AB734) according to CLSI guidelines. MICs were repeated for each strain in the presence of polymyxin B nonapeptide (4 μg/ml) to assess the impact of outer-membrane permeability on antimicrobial activity.

E. coli BC enzyme = settings: read-out: IC50 for the E. coli BC enzyme; cited from earlier work
[2] = test system: SM1411 (acrAB deficient derivative of 1411); test: MIC by broth microdilution, SM1411; type: cell-based, E. coli
Description: as §1, §2

DdlB = molecular target: T1, DdlB (Escherichia coli, UniProt P07862); test: Surface plasmon resonance binding to immobilised DdlB; settings: steady-state affinity model; 25°C; 50 mM Hepes, 150 mM NaCl, 5% DMSO; read-out: KD (SPR)
T1 construct: polyhistidine (His) tag (N); made in house; host or cells: E. coli BL21(λDE3), vector pQE-30 UA (Qiagen)
Description: The binding of the compounds 11, 13, 14, 24, 27, 33, and 35 to the target enzyme was confirmed using surface plasmon resonance (SPR) (Figure 10). Experiments were performed at conditions that enable long term stability of the enzyme. […] The enzyme was covalently attached to the surface of a sensor chip CM5 and compounds were titrated over the surface. The binding of all the compounds was characterised by fast association and dissociation rates. Equilibrium affinity constants, estimated from the steady-state binding levels are in agreement with enzymatic studies and ITC. In addition, the binding of other compounds was tested but insufficient solubility at higher concentrations of analytes in the running buffer precluded analysis.
Figure 10 SPR analysis of compounds binding to DdlB. Different concentrations of compounds were tested for the binding (left panels in all cases). The binding curves (right panels) were generated by ploting steady-state response levels, i.e. at the end of the association phase, vs concentration of the injected compound. For each compound 3–5 independent titrations were performed.
The binding constants were obtained by using a Biacore T100 (Biacore, GE Healthcare, USA). […] Two 1 min injections of 50 μg/ml DdlB diluted in 10 mM Na-acetate, pH 4.0 were applied on the second flow cell. The first flow cell was left unmodified and served as a control for non-specific binding of tested compounds. The remaining active groups on the surface of both flow cells were deactivated with a 7-min injection of ethanolamine. The level of immobilized enzyme was around 10000 response units.
Each analyte was titrated, with 3 or 4 repetitions, using different concentrations according to their solubility in running buffer (50 mM Hepes, 150 mM NaCl, 5% DMSO, pH 7.4), usually from 0,781 μM to 500 μM. One concentration was repeated at the end of the assay in each dilution series, in order to check the surface stability and repeatability. The association lasted 60 seconds at a flow-rate 30 μl/min. No regeneration was needed. All experiments were performed at 25°C. Sensorgrams were double referenced by subtracting the signal obtained in the empty flow cell and the injection of the buffer. The steady-state response levels were fitted using the Steady State Affinity model in Biacore T100 Evaluation software.

E. coli DdlB [3] = molecular target: T2, E. coli DdlB (Escherichia coli, UniProt P07862); test: Colorimetric malachite green inhibition assay of DdlB; type: biochemical; settings: for Ki: against ATP (50-500 μM), D-Ala 10 mM, competitive model; for mode of inhibition of DdlB: kinetic analysis at different inhibitor and ATP concentrations; for IC50: malachite green assay, 700 μM D-Ala, 500 μM ATP, 37°C, 20 min, read-out: inhibitory activity on DdlB: IC50
T2 construct: polyhistidine (His) tag (N); made in house; host or cells: E. coli BL21(λDE3), vector pQE-30 UA (Qiagen)
Description: All of the synthesized 6-arylpyrido[2,3-d]pyrimidines 11–36 were assayed for in vitro inhibitory activity on E. coli DdlB by detecting orthophosphate generated during the enzymatic reaction using a Malachite green assay.
Inhibition of DdlB was measured at different inhibitor and ATP concentrations in order to determine Ki values and the mode-of-action of both compounds.
The target compounds were tested for their ability to inhibit the D-Ala-adding activity of DdlB ligase with the colorimetric malachite green method in which orthophosphate generated during the reaction is measured. Each compound was tested in duplicate at 100, 250 or 500 μM in a mixture, final volume 50 μL, containing 50 mM Hepes (pH 8.0), 5 mM MgCl2, 10 mM (NH4)2SO4, 10 mM KCl, 700 μM D-Ala, 500 μM ATP, purified His-tagged DdlB (diluted in 50 mM Hepes (pH 7.2) and 1 mM DTT) and the test compound dissolved in DMSO. The final concentration of DMSO was 5% (v/v). The reaction mixture was incubated at 37°C for 20 min, then quenched with 100 μL of Biomol reagent and absorbance at 650 nm was measured after 5 min. To exclude possible promiscuous inhibitors, all compounds were tested in the presence of Triton-114 (0.005%). Residual activities were calculated relative to control assays without the compounds and with DMSO.

E. coli DdlB [4] = molecular target: T2, E. coli DdlB; test: Isothermal titration calorimetry of binding to DdlB; settings: ITC, 37°C; for entropy contribution of binding ([drawing 6]) / standard Gibbs free energy of binding ([drawing 5]): calculated from the fitted parameters
Description: Two of the compounds, 14 and 33, were also tested by ITC to obtain thermodynamic parameters of the binding into DdlB active site. Heat changes upon binding of the ligand on the E. coli DdlB were measured directly, corrected for the heats of dilution, and the model function was fitted to the experimental data points (see the Experimental section).
The value of critical parameter for obtaining highly reliable thermodynamic data ( [drawing 10] ) was not optimal due to low inhibitors solubility and quite low binding constants. Nevertheless, the conclusions below can be drawn. Experiments for the two compounds result in similar binding constants (K b≈10^5 M^−1) (Table 1), but the driving forces for the binding differ (Figure 11). The binding of compound 14 to DdlB results from favourable enthalpy and entropy contributions. […] But still, compensation of the opposing effects at 33 results in similar [drawing 11] (and binding constant) as at 14, although there are less specific interactions between 33 and the protein as at 14.
The heat changes upon binding were measured using a VP-ITC microcalorimeter from MicroCal, LLC (Northampton, MA, USA). Purified DdlB stock solution in 20% glycerol was dialysed for 40 hours at 4°C (50 mM Hepes, pH = 8.0, 10 mM KCl, 10 mM (NH4)2SO4, 5 mM MgCl2, and 0.01% Triton X-114) prior to titration. The ligand solutions were prepared by adding a stock solution of 14 or 33 in DMSO to the dialysis buffer to obtain final 50 μM solution of the DdlB inhibitor in 5% DMSO. Successive aliquots (11–31 μl) of the degassed ligand solution were injected at 5–8 min intervals by a motor driven syringe (300 μl) into the degassed DdlB solution (approximately 2 μM, 5% DMSO) in the calorimeter cell (V = 1.386 ml) with constant stirring (300 rpm) at 37°C. At the end of experiment the final ratio of ligand:enzyme in the titration cell was about 6∶1. The titration data was further corrected for the heat changes observed in the control titration of ligand solution into the dialysis buffer, 5% DMSO, alone. The experimental data was analysed using the Origin 7.0 software provided by MicroCal and fitted by a home written program, based on the non-linear Levenberg–Marquardt χ^2 regression procedure, assuming a single binding site model (two parameter fit): [drawing 12] [drawing 13] where P, L, and PL represent DdlB, ligand, and DdlB-ligand complex, ΔH and [drawing 14] are the measured enthalpy upon aliquot addition and the standard enthalpy change of the binding reaction, [drawing 15] and [drawing 16] represent the total number of moles of ligand and DdlB-ligand complex in the titration cell, r is the bound ligand to total protein concentration,[P]tot, ratio and K b is the binding constant. A detailed explanation of the applied model equation is given in the Information S2.

[5] = test system: E. coli strains (1411, AB734, SM1411, ES100); test: Antibacterial activity stated for the E. coli strains together; type: cell-based; settings: Escherichia coli; read-out: MICs against all strains
Description: as §1, §2

Ddl = molecular target: Ddl; parameters: method as in PMID 14479178; settings: read-out: Ki of D-cycloserine on Ddl; cited from earlier work
[6] = with polymyxin B nonapeptide (4 μg/ml)

| SMILES | MIC ([1]; Escherichia coli, read-out: MIC ES100 (tolC)) | MIC ES100 +PMBN [1, 6] | IC50 (E. coli BC enzyme) | MIC ([2]; Escherichia coli, read-out: MIC SM1411 (acrAB)) | MIC SM1411 +PMBN [2, 6] | Kd (DdlB) | Ki (E. coli DdlB [3]) | mode of inhibition of DdlB (E. coli DdlB [3]) | IC50 (E. coli DdlB [3]) | Kd (E. coli DdlB [4]) | standard enthalpy of binding ([drawing 4]) (E. coli DdlB [4]) | entropy contribution of binding ([drawing 6]) (E. coli DdlB [4]) | standard Gibbs free energy of binding ([drawing 5]) (E. coli DdlB [4]) | MIC [5] | melting point | Ki (Ddl) | fold greater DdlB inhibitory potency than corresponding diamine 13 (E. coli DdlB [3]; ratio of IC50 values, 14 against 13) |
| --- | --- | --- | --- | --- | --- | --- | --- | --- | --- | --- | --- | --- | --- | --- | --- | --- | --- |
| Nc1ncc2cc(-c3c(Br)cccc3Br)c(N)nc2n1 [Compound 33, 6-(2,6-dibromophenyl)pyrido[2,3-d]pyrimidine-2,7-diamine] | 0.5 µg/mL (≈ 1.27 µM) | 0,125 μg/ml | < 0.005 µM | 1 µg/mL (≈ 2.53 µM) | 0,25 μg/ml | 161 ± 73.7 µM | 38 ± 5 µM | ATP competitive inhibitors | 453 µM | 10 µM | 4 kcal/mol | 11 kcal/mol | -7 kcal/mol | – | – | – | – |
| Nc1ncc2cc(-c3ccc4c(c3)OCO4)c(N)nc2n1 [Compound 35, 6-(benzo[d][1,3]dioxol-5-yl)pyrido[2,3-d]pyrimidine-2,7-diamine] | – | – | – | – | – | 104 ± 36.2 µM | – | – | 1110 µM | – | – | – | – | > 256 µg/mL | > 300 °C | – | – |
| N[C@@H]1CON=C1O [D-cycloserine, D-4-amino-3-isoxazolidone, reference compound] | – | – | – | – | – | – | – | – | 296 µM | – | – | – | – | – | – | 27 µM | – |
| CC(C)(C)NC(=O)Nc1nc2nc(N)ncc2cc1-c1c(Cl)cccc1Cl [Compound 27, 1-(2-amino-6-(2,6-dichlorophenyl)pyrido[2,3-d]pyrimidin-7-yl)-3-tert-butylurea] | – | – | – | – | – | 16.7 ± 6.5 µM | – | – | 655 µM | – | – | – | – | > 256 µg/mL | – | – | – |
| COc1cc(OC)cc(-c2cc3cnc(N)nc3nc2NC(=O)NC(C)(C)C)c1 [Compound 14, 1-(2-amino-6-(3,5-dimethoxyphenyl)pyrido[2,3-d]pyrimidin-7-yl)-3-tert-butylurea] | – | – | – | – | – | 19 ± 6.6 µM | 31 ± 4 µM | ATP competitive inhibitors | 340 µM | 10 µM | -4 kcal/mol | 3 kcal/mol | -7 kcal/mol | > 256 µg/mL | – | – | 2.6 fold |
